Test results: patent publication US6245817A, “NPY5 receptor antagonists and methods for using same” (Bayer Corporation, priority 1999, dated 2001)

How the values were obtained:
Human NPY2 receptor = target: T1, Human NPY2 receptor (Homo sapiens, UniProt P49146); test: Human NPY2 Receptor Binding Assay; details: [125I]PYY; read-out: hPPY2 IC50
T1 sequence (P49146 1-381): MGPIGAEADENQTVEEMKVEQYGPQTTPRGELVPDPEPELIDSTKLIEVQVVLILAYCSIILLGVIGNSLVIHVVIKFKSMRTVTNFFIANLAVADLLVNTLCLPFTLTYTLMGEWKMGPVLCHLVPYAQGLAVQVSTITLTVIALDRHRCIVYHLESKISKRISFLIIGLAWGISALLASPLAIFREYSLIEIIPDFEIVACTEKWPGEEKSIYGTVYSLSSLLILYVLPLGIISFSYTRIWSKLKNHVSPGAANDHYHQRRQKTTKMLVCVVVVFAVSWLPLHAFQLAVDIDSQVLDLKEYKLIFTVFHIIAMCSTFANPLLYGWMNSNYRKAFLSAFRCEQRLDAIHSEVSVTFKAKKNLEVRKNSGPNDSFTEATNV
Method: Binding assays were performed on GF/C Millipore 96-well plates pretreated with 0.02% polyethylenimine. The binding buffer for rat Y2 binding is Krebs-Ringer bicarbonate (pH 7.4) containing 0.01% BSA and 0.005% bacitracin. Samples consist of membrane protein, 25 pM [125I]PYY and drug dilution. Nonspecific binding is defined by 1 μpM NPY.
After a 2 hour incubation at room temperature with constant mixing, the samples are aspirated on a vacuum manifold, and rinsed with ice-cold binding buffer. The amount of radioactivity in each well is quantitated with either gamma counting or liquid scintillation.

Human NPY5 Receptor = target: T2, Human NPY5 Receptor (Homo sapiens, UniProt Q15761); test: Human NPY5 Receptor Binding Assay; details: [125I]PYY; read-out: hNPY5 IC50
T2 sequence (Q15761 1-445): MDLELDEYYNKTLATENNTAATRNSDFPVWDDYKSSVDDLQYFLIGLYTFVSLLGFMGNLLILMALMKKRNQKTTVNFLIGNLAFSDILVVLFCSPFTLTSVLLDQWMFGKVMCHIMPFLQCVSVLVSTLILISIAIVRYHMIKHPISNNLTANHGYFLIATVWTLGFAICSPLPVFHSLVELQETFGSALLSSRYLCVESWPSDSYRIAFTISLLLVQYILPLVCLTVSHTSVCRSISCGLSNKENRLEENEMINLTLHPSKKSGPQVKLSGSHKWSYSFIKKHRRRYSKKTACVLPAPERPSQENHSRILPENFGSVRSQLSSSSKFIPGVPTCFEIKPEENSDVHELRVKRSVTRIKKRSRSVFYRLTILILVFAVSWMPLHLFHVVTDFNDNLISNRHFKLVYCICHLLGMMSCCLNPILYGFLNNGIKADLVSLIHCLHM

Human NPY4/PP1 receptor = Human NPY4/PP1 receptor (Homo sapiens, UniProt P50391); test: Human NPY4/PP1 Receptor Binding Assay; details: [125I]human PP; read-out: hNPY4 IC50
Chain of Human NPY4/PP1 receptor (P50391 whole entry): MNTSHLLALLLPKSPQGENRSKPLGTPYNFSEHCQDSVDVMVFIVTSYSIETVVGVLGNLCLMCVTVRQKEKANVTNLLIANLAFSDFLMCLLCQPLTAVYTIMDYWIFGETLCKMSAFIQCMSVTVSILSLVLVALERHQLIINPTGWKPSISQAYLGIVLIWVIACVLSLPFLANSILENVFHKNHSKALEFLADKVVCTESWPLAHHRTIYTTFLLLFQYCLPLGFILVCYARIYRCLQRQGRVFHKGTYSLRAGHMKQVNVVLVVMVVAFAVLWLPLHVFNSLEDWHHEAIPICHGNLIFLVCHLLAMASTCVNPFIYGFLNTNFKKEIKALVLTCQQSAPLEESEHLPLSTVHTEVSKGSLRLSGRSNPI

Human NPY1 Receptor = target: T3, Human NPY1 Receptor (Homo sapiens, UniProt P25929); test: Human NPY1 Receptor Binding Assay; details: SK-N-MC cells, [125I]PYY; read-out: hNPY1 IC50
T3 sequence (P25929 1-384): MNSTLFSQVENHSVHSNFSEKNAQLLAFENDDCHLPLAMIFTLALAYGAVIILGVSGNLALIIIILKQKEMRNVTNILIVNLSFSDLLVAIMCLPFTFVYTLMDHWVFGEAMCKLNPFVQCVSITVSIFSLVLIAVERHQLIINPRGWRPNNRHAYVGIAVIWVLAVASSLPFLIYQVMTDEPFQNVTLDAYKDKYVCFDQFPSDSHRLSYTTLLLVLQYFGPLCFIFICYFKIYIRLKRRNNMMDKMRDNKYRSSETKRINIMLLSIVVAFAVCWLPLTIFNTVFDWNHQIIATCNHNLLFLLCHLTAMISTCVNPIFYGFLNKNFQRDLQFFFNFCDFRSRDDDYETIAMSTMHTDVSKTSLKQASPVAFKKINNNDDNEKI

Rat NPY5 Receptor = target: T4, Rat NPY5 Receptor (Rattus norvegicus, UniProt Q63634); test: Rat NPY5 Receptor Binding Assay; details: for inhibition at 10 µM: values marked *, read-out: rNPY5 percent inhibition at 10 μM; for IC50: [125I]PYY, read-out: rNPY5 IC50
T4 sequence (Q63634 1-445): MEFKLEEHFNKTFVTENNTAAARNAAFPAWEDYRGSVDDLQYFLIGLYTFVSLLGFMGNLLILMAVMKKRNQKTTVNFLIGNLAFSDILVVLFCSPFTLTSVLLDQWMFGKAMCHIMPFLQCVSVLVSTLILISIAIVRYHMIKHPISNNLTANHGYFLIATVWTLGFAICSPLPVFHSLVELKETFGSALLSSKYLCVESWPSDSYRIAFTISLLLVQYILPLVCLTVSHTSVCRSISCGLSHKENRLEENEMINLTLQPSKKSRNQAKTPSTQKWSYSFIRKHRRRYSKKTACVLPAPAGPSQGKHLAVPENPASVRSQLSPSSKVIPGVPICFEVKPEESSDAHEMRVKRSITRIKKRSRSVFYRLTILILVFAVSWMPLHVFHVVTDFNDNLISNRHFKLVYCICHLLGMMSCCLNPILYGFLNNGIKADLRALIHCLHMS

| IC50 (Human NPY2 receptor) [µM] | IC50 (Human NPY5 Receptor) [µM] | IC50 (Human NPY4/PP1 receptor) [µM] | IC50 (Human NPY1 Receptor) [µM] | inhibition at 10 µM (Rat NPY5 Receptor) [%] | IC50 (Rat NPY5 Receptor) [µM] | Compound |
| --- | --- | --- | --- | --- | --- | --- |
| > 10 | 0.64 | > 5 | > 5 | 95 |  | Cn1ccnc1SCC(=O)Nc1ccc(-c2ccccc2)cc1 [Compound 1, N-Biphenyl-4yl-2-(1-methyl-1H-imidazol-2-ylsulfanyl)-acetamide] |
| > 5 | > 10 | > 5 | > 5 |  | > 10 | Cc1cc(-c2nnc(SCC(=O)Nc3ccc(C(F)(F)F)cc3)n2C)no1 [Compound 2, 2-[4-Methyl-5-(5-methyl-isoxazol-3-yl)-4H-[1,2,4]triazol-3-ylsultanyl]-N-(4-trifluoro-methyl-phenyl)-acetamide] |
| > 5 | 0.16 | > 5 | > 5 |  | 0.18 | Cc1ccccc1NC(=O)CCC(Oc1ccccc1)C(=O)Nc1ccccc1C (stereo not drawn) [Compound 6, 2-Phenoxy-pentanedioic acid bis-o-tolylamide] |
| > 5 | 1.6 | > 5 | > 5 |  | 0.44 | O=C(CCC(Sc1ccccc1)C(=O)Nc1ccccc1)Nc1ccccc1 (stereo not drawn) [Compound 7, 2-Phenylsulfanyl-pentanedioic acid bis-phenylamide] |
| > 5 | > 10 | > 5 | > 5 |  | > 10 | Cc1cc(C)n2nc(SCC(=O)Nc3ccc(Cl)cc3)nc2n1 [Compound 137, reference compound] |
| > 5 | > 10 | > 5 | > 5 | 52 |  | Cc1nc(-c2nnc(SCC(=O)Nc3ccc(Cl)cc3)n2C)cs1 [Compound 138, N-(4-Chloro-phenyl)-2-(4-methyl-5-(2-methyl-thiazolo-yl)-4H-[1,2,4]triazol-3-ylsulfanyl]-acetamide, reference compound] |
| > 5 | > 10 | > 5 | > 5 |  | > 10 | Cn1ccnc1SCC(=O)Nc1ccc(Cl)cc1 [Compound 139, N-(4-Chloro-phenyl)-2-(1-methyl-1H-imidazoI-2-ylsulfanyl)-acetamide, reference compound] |
| > 5 | > 10 | > 5 | > 5 | 61 |  | CCn1c(SCC(=O)Nc2ccc(Cl)cc2)nc2ccccc21 [Compound 140, N-(4-Chloro-phenyl)-2-(1-ethyl-1H-berzoimidazol-2-ylsulfanyl)-acetamide, reference compound] |
| > 5 | 3 | > 5 | > 5 |  | 3 | CC(C)c1ccc(NC(=O)CSc2n[nH]c(=O)n2-c2cccc(F)c2)cc1 [Compound 141, reference compound] |
| > 5 | > 10 | > 5 | > 5 |  | > 10 | CSc1ncc(-c2nnc(SCC(=O)Nc3ccc(Cl)cc3)n2C)n1C [Compound 142, N-(4-Chloro-phenyl)-2-(4-methyl-5-(3-methyl-2-methylsulfanyl-3H-imidazol-4-yl)-4H-[1,2,4]triazol-3-ylsulfanyl]-acetamide, reference compound] |
| > 5 | 3.1 | > 5 | > 5 |  | 3.9 | Cn1ccnc1SCC(=O)Nc1ccc(C(C)(C)C)cc1 [Compound 143, N-(4-tert-Butyl-phenyl)-2-(1-methyl-1H-imidazol-2-ylsulfanyl)-acetamide, reference compound] |
| > 5 | 1.2 | > 5 | > 5 |  | 1.4 | Cn1nnnc1SCC(=O)Nc1ccc(OC(F)(F)F)cc1 [Compound 144, 2-(1-Methyl-1H-tetrazol-5-ylsulfanyl)-N-(4-trifluoromethoxy-phenyl)-acetamide, reference compound] |
| > 5 | > 10 | > 5 | > 5 |  | > 10 | Cn1ccnc1SCC(=O)Nc1ccc(I)cc1 [Compound 145, N-(4-Iodo-phenyl)-2-(1-methyl-1H-imidazol-2-ylsulfanyl)-acetamide, reference compound] |
| > 5 | > 10 | > 5 | > 5 |  | > 10 | CN1CCN=C1SCC(=O)Nc1ccc(F)cc1 [Compound 146, N-(4-Fluoro-phenyl)-2-(1-methyl-4,5-dihydro-1H-imidazol-2-ylsulfanyl)-acetamide, reference compound] |
| > 5 | > 10 | > 5 | > 5 |  | > 10 | O=C(CSc1n[nH]c(=O)n1-c1cccc(F)c1)Nc1ccc(Cl)cc1 [Compound 147, reference compound] |
| > 5 | 4 | > 5 | > 5 |  | 2.4 | CCC(C)c1ccc(NC(=O)CSc2nccn2C)cc1 (stereo not drawn) [Compound 148, N-(4-sec-Butyl-phenyl)-2-(1-methyl-1H-imidazo1-2-ylsulfanyl)-acetamide, reference compound] |
| > 5 | 0.24 | > 5 | > 5 |  | 0.28 | Cc1ccc(SCC(=O)Nc2cccc(C#N)c2)cc1 [Compound 151, N-(3-Cyano-phenyl)-2-p-tolylsulfanyl-acetamide, reference compound] |
| > 5 | > 10 | > 5 | > 5 |  | > 10 | Cn1c(CN2C(=O)CSc3ccc(C(F)(F)F)cc32)nnc1SCC(=O)Nc1ccccc1 [Compound 152, 2-[4-Methyl-5-(3-oxo-6-trifluornmethyl-2,3-dihydro-benzo[1,4]thiazin-4-ylmethyl)-4H-[1,2,4]triazol-3-ylsulfanyl]-N-phenyl-acetamide, reference compound] |
| > 5 | > 10 | > 5 | > 5 |  | 10 | Cn1c(-c2ccc(Cl)cc2)cnc1SCC(=O)Nc1ccc(Cl)cc1 [Compound 154, N-(4-Chloro-phenyl)-2-[5-(4-chloro-phenyl)-1-methyl-1H-imidazol-2-ylsulfanyl]-acetamide, reference compound] |
| > 5 | > 10 | > 5 | > 5 |  | > 10 | CC(C)c1ccc(NC(=O)CSc2nccn2C)cc1 [Compound 155, N-(4-Isopropyl-phenyl)-2-(1-methyl-1H-imidazol-2-ylsulfanyl)-acetamide, reference compound] |
| > 5 | > 10 | > 5 | > 5 |  | > 10 | CCOc1ccc(NC(=O)CSc2nccn2C)cc1 [Compound 156, N-(4-Ethoxy-phenyl)-2-(1-methyl-1H-imidazol-2-ylsulfanyl)-acetamide, reference compound] |
